This note sets out measurements from US20220251081A1, “HETEROBICYCLIC INHIBITORS OF MAT2A AND METHODS OF USE FOR TREATING CANCER” (priority 2019, published 2022).

Each structure is given as a SMILES string. A value given as a limit tells only on which side of the number the result lay.

The assay deals with T1, MAT2A homodimer (Homo sapiens, UniProt P31153).
T1 construct: inferred from Ni sepharose purification and imidazole elution; made in house; host or cells: Sf9 insect cells, recombinant baculovirus (Bac to Bac, pFASTBAC1 vector)
Nature of the assay: Biochemical assay: inhibition of recombinant MAT2A homodimer (phosphate release, PiColorLock Gold). To be noted: MAT2A IC50 score; read-out: Enzyme Inhibition. The method, then:
Mat2A protein was expressed by recombinant baculovirus in SF9 infected cells using the Bac to Bac system cloned into the pFASTBAC1 vector (Invitrogen, Carlsbad, Calif.). Recombinant MAT2A was isolated from the cell lysate of 150 g of infected cells using HP Ni sepharose column chromatography. Recombinant MAT2A homodimer was eluted with 250 and 500 mM imidazole, and fractions containing MAT2A were identified by sodium dodecyl sulfate polyacrylamide gel electrophoresis and pooled.
For determination of the inhibitory potency of compounds against the MAT2A homodimer, protein was diluted to 4 μg/mL in assay buffer (50 mM Tris, pH 8.0, 50 mM KCl, 15 mM MgCl2, 0.3 mM EDTA, 0.005% [w/v] bovine serum albumin [BSA]). Test compound was prepared in 100% dimethyl sulfoxide (DMSO) at 50× the desired final concentration. A 1 μL volume of compound dilution was added to 40 μL of enzyme dilution and the mixture was allowed to equilibrate for 60 minutes at 25° C. The enzymatic assay was initiated by the addition of 10 μL of substrate mix (500 μM ATP, pH 7.0, 40 μM L-methionine in 1× assay buffer), and the mixture was incubated for a further 60 minutes at 25° C. The reaction was halted and the liberated phosphate released by the enzyme in stoichiometric amounts by the production of S-adenosyl methionine (SAM) was measured using the PiColorLock Gold kit (Innova Biosciences, UK). Absolute product amounts were determined by comparison to a standard curve of potassium phosphate buffer, pH 8.0.

T1 sequence (P31153 whole entry): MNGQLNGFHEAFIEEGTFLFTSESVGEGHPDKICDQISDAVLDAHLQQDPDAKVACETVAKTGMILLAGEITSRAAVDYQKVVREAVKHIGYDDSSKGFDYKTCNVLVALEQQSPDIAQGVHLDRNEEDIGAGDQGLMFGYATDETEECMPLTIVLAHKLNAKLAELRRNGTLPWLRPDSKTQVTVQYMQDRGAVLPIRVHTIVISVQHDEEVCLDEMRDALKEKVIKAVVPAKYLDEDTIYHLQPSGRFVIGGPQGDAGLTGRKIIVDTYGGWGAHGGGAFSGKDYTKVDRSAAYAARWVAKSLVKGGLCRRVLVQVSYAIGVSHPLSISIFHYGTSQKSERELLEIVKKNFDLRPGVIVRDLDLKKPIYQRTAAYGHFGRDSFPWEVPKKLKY

Take `COc1ccc(-c2cc3cnc(NCC4CC4)nc3n(-c3ccccc3)c2=O)cc1` [Example 102]: the IC50 fell in the range of 100 to 1000 nM.

For the compound `COc1ccc(-c2cc3cnc(NCC(F)(F)F)nc3n(-c3ccccc3)c2=O)cc1` [Example 103], the IC50 is 100 to 1000 nM. On to `COc1ccc(-c2cc3cnc(S(C)(=O)=O)nc3n(-c3ccccc3)c2=O)cc1` [Example 104], for which the IC50 lay within 1000 to 10000 nM. Take `COc1ccc(-c2cc3cnc(S(C)(=O)=O)nc3n(-c3ccc(O)cc3)c2=O)cc1` [Example 105]: the IC50 was 1000 to 10000 nM.

Take `COc1ccc(-c2cc3cnc(NCC(F)(F)F)nc3n(-c3ccncc3)c2=O)cc1` [Example 107]: the IC50 lay within 100 to 1000 nM. On to `COc1ccc(-c2cc3cnc(SC)nc3n(-c3ccc(OC(F)(F)F)cc3)c2=O)cc1` [Example 108], for which the IC50 fell in the range of 1000 to 10000 nM. Take `COc1ccc(-c2cc3cnc(NCC(F)(F)F)nc3n(-c3ccc(OC(F)(F)F)cc3)c2=O)cc1` [Example 109]: the IC50 lay within 100 to 1000 nM. `COc1ccc(-c2cc3cnc(SC)nc3n(-c3ccc(Cl)cc3)c2=O)cc1` [Example 110]: the IC50 was 100 to 1000 nM. For `COc1ccc(-c2cc3cnc(SC)nc3n(-c3ccc(C(F)(F)F)cc3)c2=O)cc1` [Example 111], the IC50 lay in the range of 1000 to 10000 nM. With `COc1ccc(-c2cc3cnc(NCC(F)(F)F)nc3n(-c3ccc(C(F)(F)F)cc3)c2=O)cc1` [Example 112] the figure was below 100 nM; with `COc1ccc(-c2cc3cnc(SC)nc3n(-c3ccc(OC)cc3)c2=O)cc1` [Example 113], 100 to 1000 nM. With `COc1ccc(-n2c(=O)c(-c3ccc4ncccc4c3)cc3cnc(SC)nc32)cc1` [Example 114] the figure was 100 to 1000 nM; with `COc1ccc(-c2cc3cnc(NCC(F)(F)F)nc3n(-c3ccc(C#N)cc3)c2=O)cc1` [Example 117], 100 to 1000 nM. As for `COc1ccc(-c2cc3cnc(NCC(F)(F)F)nc3n(-c3ccc4sccc4c3)c2=O)cc1` [Example 125, 8-(benzo[b]thiophen-5-yl)-6-(4-methoxyphenyl)-2-(2,2,2-trifluoroethylamino)pyrido[2,3-d]pyrimidin-7(8H)-one], the IC50 was below 100 nM. The figure for `COc1ccc(-c2cc3cnc(NCC(F)(F)F)nc3n(-c3ccc(Cl)cc3)c2=O)cc1` [Example 126] is below 100 nM; for `COc1ccc(-c2cc3cnc(NCC(F)(F)F)nc3n(-c3ccc4[nH]ccc4c3)c2=O)cc1` [Example 128] it is 100 to 1000 nM.

Turning to `COc1ccc(-c2cc3ccc(NCC(F)(F)F)nc3n(-c3ccc(C4CC4)cc3)c2=O)cc1` [Example 132], the IC50 was below 100 nM. On to `COc1ccc(-c2cc3ccc(NCC(F)(F)F)nc3n(-c3ccc(Cl)cc3)c2=O)cc1` [Example 133], for which the IC50 was below 100 nM. The figure for `COc1ccc(-c2cc3ccc(NCC(F)(F)F)nc3n(-c3ccc(C4CC4)nc3)c2=O)cc1` [Example 134] is below 100 nM; for `CCOc1ccc2cc(-c3ccc(OC)cc3)c(=O)n(-c3ccc(C)nc3)c2n1` [Example 136, 7-ethoxy-3-(4-methoxyphenyl)-1-(6-methylpyridin-3-yl)-1,8-naphthyridin-2(1H)-one] it is below 100 nM. Consider `CCOc1ccc2cc(-c3ccc4nn(C)cc4c3)c(=O)n(-c3ccc(C)nc3)c2n1` [Example 137], for which the IC50 is below 100 nM. On to `CCOc1ccc2cc(-c3ccc(OC)cc3)c(=O)n(-c3ccc(C(F)(F)F)cc3)c2n1` [Example 141], for which the IC50 is below 100 nM.

As to `CCOc1ccc2cc(-c3ccc(OC)cc3)c(=O)n(-c3cnc(NC)nc3)c2n1` [Example 143], the IC50 is below 100 nM. Take `[2H]C([2H])([2H])Nc1ccc(-n2c(=O)c(-c3ccc4nn(C)cc4c3)cc3ccc(OCC)nc32)cn1` [Example 146]: the IC50 is below 100 nM.

Regarding `CCOc1ccc2cc(-c3ccc(OC)cc3)c(=O)n(-c3ccc(Cl)cc3)c2n1` [Example 154], the IC50 is below 100 nM. For the compound `CCOc1ccc2cc(-c3ccc(OC)cc3)c(=O)n(-c3ccc(OC(F)(F)F)nc3)c2n1` [Example 156], the IC50 was 100 to 1000 nM. In the case of `CNC(=O)c1ccc(-c2cc3cnc(NCC(F)(F)F)nc3n(-c3ccc(OC)cc3)c2=O)cc1` [Example 170, 4-(8-(4-methoxyphenyl)-7-oxo-2-(2,2,2-trifluoroethylamino)-7,8-dihydropyrido[2,3-d]pyrimidin-6-yl)-N-methylbenzamide], the IC50 was in the range of 100 to 1000 nM. In the case of `COc1ccc(-n2c(=O)c(-c3ccc(OC)cn3)cc3cnc(NCC(F)(F)F)nc32)cc1` [Example 175], the IC50 fell in the range of 100 to 1000 nM. Turning to `COc1ccc(-n2c(=O)c(-c3ccc(OC)c(C)c3)cc3cnc(NCC(F)(F)F)nc32)cc1` [Example 178], the IC50 is 100 to 1000 nM.

For the compound `COc1ccc(-n2c(=O)c(-c3ccc(S(C)(=O)=O)cc3)cc3cnc(NCC(F)(F)F)nc32)cc1` [Example 179], the IC50 lay within 100 to 1000 nM. As for `COc1ccc(-n2c(=O)c(-c3ccncc3)cc3cnc(NCC(F)(F)F)nc32)cc1` [Example 181], the IC50 lay in the range of 100 to 1000 nM. With `COc1ccc(-n2c(=O)c(-c3ccc4nncn4c3)cc3cnc(NCC(F)(F)F)nc32)cc1` [Example 182] the figure was 1000 to 10000 nM; with `COc1ccc(-n2c(=O)c(-c3ccc(OC)c(F)c3)cc3cnc(NCC(F)(F)F)nc32)cc1` [Example 184], 100 to 1000 nM; with `COc1ccc(-n2c(=O)c(-c3ccc4c(c3)C(C)(C)CO4)cc3cnc(NCC(F)(F)F)nc32)cc1` [Example 190], below 100 nM. As for `COc1ccc(-n2c(=O)c(-c3ccc4c(c3)OC(C)(C)O4)cc3cnc(NCC(F)(F)F)nc32)cc1` [Example 191], the IC50 was in the range of 100 to 1000 nM.

Turning to `O=c1c(-c2ccc3nccn3c2)cc2cnc(NCC(F)(F)F)nc2n1-c1ccc(C2CC2)cc1` [Example 192], the IC50 was below 100 nM. With `Cn1cc(-c2cc3cnc(NCC(F)(F)F)nc3n(-c3ccc(C4CC4)cc3)c2=O)ccc1=O` [Example 193], the IC50 was below 100 nM.

For `CCOc1ccc2cc(-c3ccc(OC(F)F)cc3)c(=O)n(-c3ccc(OC(F)F)cc3)c2n1` [Example 198], the IC50 is below 100 nM. `CCOc1ccc2cc(-c3ccc(OCCN(C)C)cc3)c(=O)n(-c3ccc(OC(F)F)cc3)c2n1` [Example 206]: the IC50 was below 100 nM. `CCOc1ccc2cc(-c3ccc4nn(CC(C)(C)C)cc4c3)c(=O)n(-c3ccc(Cl)cc3)c2n1` [Example 211]: the IC50 was below 100 nM.

In the case of `CCOc1ccc2cc(-c3ccc4nn(CC(C)(C)O)cc4c3)c(=O)n(-c3ccc(OC(F)(F)F)nc3)c2n1` [Example 212], the IC50 is below 100 nM.

Turning to `Cn1cc(-c2cc3cnc(NCC(F)(F)F)nc3n(-c3ccc(-c4cc[nH]n4)cc3)c2=O)ccc1=O` [Example 234, 8-(4-(1H-pyrazol-5-yl)phenyl)-6-(1-methyl-6-oxo-1,6-dihydropyridin-3-yl)-2-(2,2,2-trifluoroethylamino)pyrido[2,3-d]pyrimidin-7(8H)-one], the IC50 was below 100 nM.

On to `[2H]C([2H])([2H])Oc1ccc(-c2cc3ccc(NCC(F)(F)F)nc3n(-c3ccc(OC([2H])([2H])[2H])cc3)c2=O)cc1` [Example 306], for which the IC50 was below 100 nM. Regarding `Cn1cc2cc(-c3cc4ccc(NCC(F)(F)F)nc4n(-c4ccc(C5CC5)nc4)c3=O)ccc2n1` [Example 311], the IC50 is below 100 nM. In the case of `CCNc1ccc2cc(-c3ccc4nn(C)cc4c3)c(=O)n(-c3ccc(N)nc3)c2n1` [Example 312], the IC50 is below 100 nM. Take `CN(C)c1ccc(-n2c(=O)c(-c3ccc4nn(C)cc4c3)cc3ccc(OCC(F)(F)F)nc32)cn1` [Example 315]: the IC50 is below 100 nM. On to `COc1ccc(-n2c(=O)c(-c3ccc4nn(CCO)cc4c3)cc3ccc(OCC(F)(F)F)nc32)cc1` [Example 323], for which the IC50 was below 100 nM.

As for `CCNc1ccc2nc(-c3ccc4nn(C)cc4c3)c(=O)n(-c3ccc(C4CC4)nc3)c2n1` [Example 336], the IC50 was below 100 nM. With `CCNc1ccc2nc(-c3ccc4nn(C)cc4c3)c(=O)n(-c3ccc(C)nc3)c2n1` [Example 337] the figure was below 100 nM; with `Cn1cc2cc(-c3nc4ccc(OCC(F)(F)F)nc4n(-c4ccc(Cl)cc4)c3=O)ccc2n1` [Example 339], below 100 nM; with `CN(C)c1ccc(-n2c(=O)c(-c3ccc4nn(C)cc4c3)nc3ccc(OCC(F)(F)F)nc32)cn1` [Example 349, 4-(6-(dimethylamino)pyridin-3-yl)-2-(2-methyl-2H-indazol-5-yl)-6-(2,2,2-trifluoroethoxy)pyrido[2,3-b]pyrazin-3(4H)-one], below 100 nM. With `Cn1cc2cc(-c3nc4ccc(OCC(F)(F)F)nc4n(-c4ccc(N)nc4)c3=O)ccc2n1` [Example 350, 4-(6-aminopyridin-3-yl)-2-(2-methyl-2H-indazol-5-yl)-6-(2,2,2-trifluoroethoxy)pyrido[2,3-b]pyrazin-3(4H)-one], the IC50 fell in the range of 100 to 1000 nM.
